One series deals with T1, AKT3 (Homo sapiens, UniProt Q9Y243).
T1 construct: purchased Invitrogen PV3185
The series is described as follows: AKT3 enzymatic assay (KinEASE-STK S3 HTRF kit). The following applies: 0.4 nM enzyme, 45 μM ATP, 2 μM S3-biotin. Type of series: biochemical. As to the method: (§1) The following methods were used to determine the inhibitory effect of the compounds of the present disclosure on the kinase activity of AKT1/AKT2/AKT3 in vitro. The experimental methodology is briefly described as follows:
(§2) The enzyme activity of AKT1 (Invitrogen, P2999), AKT2 (Invitrogen, PV3184) and AKT3 (Invitrogen, PV3185) was determined using a KinEASE-STK S3 kit (Cisbio, 62ST3PEC). Test compounds were each first subjected to 3-fold gradient dilution with DMSO from 500 μM to obtain a total of 11 concentrations. The 5× buffer in the kit was diluted to 1×buffer, and DTT (Sigma, 43816-10ML) and MgCl2 were added to make the buffer contain 1 mM DTT and 5 mM MgCl2. Compounds were each subjected to 20-fold dilution with 1× buffer for later use. The enzyme solution was obtained by diluting the AKT1/AKT2/AKT3 kinase with 1× buffer. ATP (Invitrogen, PV3227) and S3-biotin in the kit were diluted with 1× buffer to obtain a substrate-ATP mixture solution for later use. 2 μL of the enzyme solution and 4 μL of the compound solution were added to each well of a 384-well plate (Corning, 4513), and the mixture was incubated at room temperature for 30 min, followed by addition of 4 μL of the ATP and S3-biotin mixture solution. The resulting mixture was incubated at room temperature for 90 min. AKT1 enzyme reaction conditions were a final concentration of 2 nM for enzyme, a final concentration of 10 μM for ATP, and a final concentration of 2 μM for S3-biotin. AKT2 enzyme reaction conditions were a final concentration of 5 nM for enzyme, a final concentration of 10 μM for ATP, and a final concentration of 2 μM for S3-biotin. AKT3 enzyme reaction conditions were a final concentration of 0.4 nM for enzyme, a final concentration of 45 μM for ATP, and a final concentration of 2 μM for S3-biotin. The detection solution was prepared by diluting the S3-cryptate and streptavidin-XL665 with the detection buffer in the kit. After incubation, 10 μL of the detection solution was added to each well, the final concentration of S3-cryptate was a concentration obtained by 200-fold dilution of the stock solution, and the final concentration of streptavidin-XL665 was 125 nM. The mixture was incubated at room temperature for 60 min, values of signals emitted at […] and 620 nm after excitation at 337 nm were measured by using an HTRF module of a multi-functional microplate detector (BMG Labtech, PHERAstar FS), and the reading ratio was multiplied by 10,000 to obtain a specific value. Dose-response curves were drawn according to the concentration of the compounds and the specific values by using Graphpad Prism software, and the IC50 values for the inhibitory activity of the compounds were calculated.
(Time-resolved FRET reads energy transfer from a long-lived donor to a nearby acceptor.)

Series [1] in a line: Pharmacokinetic study in nude mice, intragastric administration. The class given is in vivo. The following applies: female, mouse, po, Balb/c nude mice, i.g., plasma; for Vd/F: read-out: Apparent volume of distribution Vz/F; for AUC(0-t): read-out: Area under curve AUC0-t; for CL/F: read-out: Clearance CL/F; for half-life: read-out: Half-life T1/2 (converted); for Cmax: read-out: Plasma concentration Cmax; for MRT: read-out: Residence time MRT. As to the method:
The drug concentration in the plasma of the test animals (Balb/c nude mice) at different time points after intragastric administration (i.g.) of the test compounds was determined by using an LC/MS/MS method. The pharmacokinetic performance of the compounds of the present disclosure in nude mice was studied and their pharmacokinetic profile was evaluated.
18 Balb/c nude mice, female, divided into 2 groups and purchased from Vital River Laboratory Animal Technology Co., Ltd.
A certain amount of compound was weighed out, 99.8% 0.5% methylcellulose was added into the compound, and then 0.2% Tween was added. The mixture was subjected to ultrasonic treatment to obtain a suspension, which was stirred for administration.
The nude mice were subjected to intragastric administration, the administration dose was 50 mg/kg or 100 mg/kg, and the administration volume was 0.2 mL/10 g.
The test compound was administered intragastrically to the nude mice, and 0.1 mL of blood was collected before administration and 0.25 h, 0.5 h, 1.0 h, 2.0 h, 4.0 h, 6.0 h, 8.0 h, 11.0 h and 24.0 h after administration. The blood was placed in an EDTA-K2 anticoagulation tube and centrifuged at 10,000 rpm for 1 min (4° C.), and plasma was separated out within 1 h and then stored at −20° C. for testing. The process from blood sampling to centrifugation was performed under an ice bath.
The content of the test compounds at different concentrations in the nude mice plasma after intragastric administration was determined: 20 μL of nude mouse plasma at each time point after administration was mixed with 50 μL of internal standard solution (camptothecin, 100 ng/mL) and 200 μL of acetonitrile, and the mixture was vortexed for 5 min and centrifuged for 10 min at 3700 rpm. 1 μL of supernatant of the plasma sample was taken for LC/MS/MS analysis.

In another series the target is T2, AKT1 (Homo sapiens, UniProt P31749).
T2 construct: purchased Invitrogen P2999
The series is described as follows: AKT1 enzymatic assay (KinEASE-STK S3 HTRF kit). Type of series: biochemical. The following applies: 2 nM enzyme, 10 μM ATP, 2 μM S3-biotin. The method, then: as §1, §2

For another series, the target named is T3, AKT2 (Homo sapiens, UniProt P31751).
T3 construct: purchased Invitrogen PV3184
As to the kind of experiment: AKT2 enzymatic assay (KinEASE-STK S3 HTRF kit). Type of series: biochemical. The following applies: 5 nM enzyme, 10 μM ATP, 2 μM S3-biotin. The method, then: as §1, §2

Like-named read-outs stand apart in the source and are kept apart here.

T1 sequence (Q9Y243 whole entry): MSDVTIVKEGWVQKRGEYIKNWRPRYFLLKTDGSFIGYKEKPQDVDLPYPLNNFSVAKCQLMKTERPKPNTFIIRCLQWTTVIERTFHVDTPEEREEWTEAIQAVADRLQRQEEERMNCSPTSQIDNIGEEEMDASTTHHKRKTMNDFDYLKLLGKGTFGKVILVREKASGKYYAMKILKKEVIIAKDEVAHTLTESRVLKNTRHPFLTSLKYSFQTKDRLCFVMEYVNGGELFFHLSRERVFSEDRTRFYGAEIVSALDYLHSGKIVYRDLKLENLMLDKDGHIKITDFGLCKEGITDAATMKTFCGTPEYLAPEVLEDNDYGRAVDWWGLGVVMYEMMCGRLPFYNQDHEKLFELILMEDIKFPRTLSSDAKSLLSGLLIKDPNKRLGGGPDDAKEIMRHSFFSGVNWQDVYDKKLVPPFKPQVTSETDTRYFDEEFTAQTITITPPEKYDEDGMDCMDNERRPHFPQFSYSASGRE
T3 sequence (P31751 whole entry): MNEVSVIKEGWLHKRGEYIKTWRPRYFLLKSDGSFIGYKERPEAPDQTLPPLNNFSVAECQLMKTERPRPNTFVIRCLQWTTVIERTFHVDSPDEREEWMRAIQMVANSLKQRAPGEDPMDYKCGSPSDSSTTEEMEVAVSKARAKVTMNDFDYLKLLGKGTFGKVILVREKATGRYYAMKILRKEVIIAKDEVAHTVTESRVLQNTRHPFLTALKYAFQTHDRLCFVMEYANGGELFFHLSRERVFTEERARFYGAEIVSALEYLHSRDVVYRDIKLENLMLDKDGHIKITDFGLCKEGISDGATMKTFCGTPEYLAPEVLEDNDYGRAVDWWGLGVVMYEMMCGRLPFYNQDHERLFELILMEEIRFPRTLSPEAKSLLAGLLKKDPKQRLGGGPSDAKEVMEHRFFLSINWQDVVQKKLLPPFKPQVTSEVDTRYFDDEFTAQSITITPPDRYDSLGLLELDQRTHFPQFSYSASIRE
T2 sequence (P31749 whole entry): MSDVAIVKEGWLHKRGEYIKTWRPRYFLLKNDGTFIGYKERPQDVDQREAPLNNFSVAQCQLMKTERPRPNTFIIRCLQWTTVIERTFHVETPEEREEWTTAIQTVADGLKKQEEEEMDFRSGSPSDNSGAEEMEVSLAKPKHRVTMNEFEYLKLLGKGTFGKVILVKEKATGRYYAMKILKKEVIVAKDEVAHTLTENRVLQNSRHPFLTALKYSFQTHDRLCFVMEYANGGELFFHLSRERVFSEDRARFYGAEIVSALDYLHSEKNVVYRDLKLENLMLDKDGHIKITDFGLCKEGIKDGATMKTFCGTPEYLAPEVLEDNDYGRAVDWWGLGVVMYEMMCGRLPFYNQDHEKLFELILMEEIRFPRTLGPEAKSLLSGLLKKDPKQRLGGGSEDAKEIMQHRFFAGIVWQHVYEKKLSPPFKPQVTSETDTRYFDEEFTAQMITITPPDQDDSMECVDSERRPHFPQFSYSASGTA

Take `CC(C)NC[C@@H](C(=O)N1C2CCC1CN(c1ncnc3c1C(C)(C)C(=O)N3)C2)c1ccc(Cl)cc1` [Example 2]: half-maximal inhibition at AKT3 (IC50) was put at 2 nM. In series [1] (50 mg/kg), the Vd/F stood at 8.03 L/kg, the AUC(0-t) worked out at 20200 ng·h/mL, the CL/F came out at 41.2 mL/min/kg and the half-life was 2.3 h. Further, in series [1] (50 mg/kg), the Cmax amounted to 3000 ng/mL and the mean residence time MRT came out at 4.9 h. In series [1] (100 mg/kg), the Vd/F stood at 16.2 L/kg, the AUC(0-t) was found to be 36000 ng·h/mL, the CL/F was 45.4 mL/min/kg and the half-life is 4.1 h. Besides, in series [1] (100 mg/kg), the Cmax was determined as 3500 ng/mL and the MRT was determined as 6.7 h. For the same compound, the IC50 on AKT1 came out at 60 nM. Moreover, half-maximal inhibition against AKT2 (IC50) required 74.1 nM.

Regarding `CC(C)NC[C@@H](C(=O)N1[C@@H]2CC[C@H]1CN(c1ncnc3c1[C@H](C)C[C@H]3O)C2)c1ccc(Cl)cc1` [Example 4, (S)-2-(4-chlorophenyl)-1-((1R,5S)-3-((5R,7R)-7-hydroxy-5-methyl-6,7-dihydro-5H-cyclopenta[d]pyrimidin-4-yl)-3,8-diazabicyclo[3.2.1]octan-8-yl)-3-(isopropylamino)propan-1-one], the IC50 against AKT3 stood at 55.6 nM. Further, in series [1] (50 mg/kg), the Vd/F is 8.71 L/kg, the AUC(0-t) worked out at 14300 ng·h/mL, the CL/F came to 57.5 mL/min/kg and the half-life was 1.8 h. Further, in series [1] (50 mg/kg), the Cmax was found to be 4130 ng/mL and the MRT was determined as 3 h. Further, in series [1] (100 mg/kg), the Vd/F is 13.2 L/kg, the AUC(0-t) is 27500 ng·h/mL, the CL/F is 60.5 mL/min/kg and the half-life was 2.5 h. Further, in series [1] (100 mg/kg), the Cmax is 5500 ng/mL and the MRT came out at 3.7 h. The same compound had an IC50 against AKT1 of 38.6 nM. The IC50 at AKT2 was 46.4 nM.

For orientation: IC50 means the concentration that gives 50% inhibition. Read a high IC50 as weaker potency. Usually MRT stands for a mean duration of stay, worked out from the concentration-time curve.

The values above are taken from patent publication US20230148417A1, “FUSED BICYCLIC DERIVATIVE, PREPARATION METHOD THEREFOR, AND PHARMACEUTICAL USE THEREOF” (Jiangsu Hengrui Pharmaceuticals Co., Ltd., priority 2020, published 2023).
